Values quoted from earlier work as cited in patent US7374770B2, “Topical composition for follicular delivery of an ornithine decarboxylase inhibitor” (SkinMedica, Inc., priority 2001, dated 2008).

Conditions: undesirable secondary pharmacological effect, known

brain 4-aminobutyric acid levels: increases
Compound: C#CC(N)CCCN (stereo not shown) [5-hexyne-1,4-diamine]
